Several values for one entry are separate records, joined by “and”; a condition that tells them apart may be missing. Equal values may be shown once.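 Five concentrations, 48 hours, 96-well plates. The concentration for 50% growth inhibition is given as GI50.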 Activity calls are given as the source filed them. Rule as the data show it: active = GI50 up to about 1.1 µM and inactive = higher.
Assays:
Assay in all cases: DTP human tumour cell line panel, 48 h
HCT-116 = system: HCT-116
NCI-H23 = system: NCI-H23
NCI/ADR-RES = system: NCI/ADR-RES
MCF7 = system: MCF7
SF-268 = system: SF-268
EKVX = system: EKVX
CCRF-CEM = system: CCRF-CEM
UACC-257 = system: UACC-257
IGROV-1 = system: IGROV-1
HOP-92 = system: HOP-92
SF-295 = system: SF-295
NCI-H522 = system: NCI-H522
SK-MEL-5 = system: SK-MEL-5
OVCAR-5 = system: OVCAR-5
RPMI-8226 = system: RPMI-8226
SNB-75 = system: SNB-75
BT-549 = system: BT-549
NCI-H460 = system: NCI-H460
SW-620 = system: SW-620
786-0 = system: 786-0

Structure (SMILES) | GI50 (HCT-116) | GI50 (NCI-H23) | GI50 (NCI/ADR-RES) | GI50 (MCF7) | GI50 (SF-268) | GI50 (EKVX) | GI50 (CCRF-CEM) | GI50 (UACC-257) | GI50 (IGROV-1) | GI50 (HOP-92) | GI50 (SF-295) | GI50 (NCI-H522) | GI50 (SK-MEL-5) | GI50 (OVCAR-5) | GI50 (RPMI-8226) | GI50 (SNB-75) | GI50 (BT-549) | GI50 (NCI-H460) | GI50 (SW-620) | GI50 (786-0)
O=C(CCc1ccc(O)c(O)c1)NCCc1cc(O)c(O)c(O)c1 | 18.6 µM (inactive) | 15.8 µM (inactive) | 18.1 µM (inactive) | 8.93 µM (inactive) | 41.1 µM (inactive) | 22.9 µM (inactive) | 44.5 µM (inactive) | 50.1 µM (inactive) | 54.1 µM (inactive) | > 100 µM (inactive) | 19 µM (inactive) | 17.2 µM (inactive) | 23.3 µM (inactive) | 61.2 µM (inactive) | 36.7 µM (inactive) | 50.6 µM (inactive) | 17 µM (inactive) | 20.6 µM (inactive) | 18.8 µM (inactive) | 18.6 µM (inactive)
CC(=O)c1cc2c(s1)C(=O)c1sccc1C2=O | 0.0698 µM (active) | 0.0184 µM (active) | 0.056 µM (active) | 0.0301 µM (active) | 0.0267 µM (active) | 0.118 µM (active) | 0.0392 µM (active) | 0.0146 µM (active) | 0.168 µM (active) | 0.294 µM (active) | 0.04 µM (active) | 0.0175 µM (active) | < 0.0113 µM (active) | 0.0664 µM (active) | 0.0392 µM (active) | 0.0204 µM (active) | 0.0184 µM (active) | 0.0908 µM (active) | 0.0569 µM (active) | 0.195 µM (active)
Cc1nc(O)c(O)c(CN2CCCCC2)n1 | > 100 µM (inactive) | > 100 µM (inactive) | > 100 µM (inactive) | > 100 µM (inactive) | > 100 µM (inactive) | > 100 µM (inactive) | > 100 µM (inactive) | > 100 µM (inactive) | > 100 µM (inactive) | > 100 µM (inactive) | > 100 µM (inactive) | > 100 µM (inactive) | > 100 µM (inactive) | > 100 µM (inactive) | > 100 µM (inactive) | > 100 µM (inactive) | > 100 µM (inactive) | > 100 µM (inactive) | > 100 µM (inactive) | > 100 µM (inactive)
C=C1CC(Cn2ccc(=O)[nH]c2=O)(c2ccc(Cl)cc2)OC1=O (stereo not given) | 2.3 µM (inactive) | 5.48 µM (inactive) | 4.56 µM (inactive) | 1.87 µM (inactive) | 19.8 µM (inactive) | 16.4 µM (inactive) | 1.63 µM (inactive) | 3.58 µM (inactive) | 2.86 µM (inactive) | 2.07 µM (inactive) | 18.8 µM (inactive) | 0.839 µM (active) | 3.05 µM (inactive) | 15.7 µM (inactive) | 1.28 µM (inactive) | 15.1 µM (inactive) | 4.1 µM (inactive) | 9.53 µM (inactive) | 1.83 µM (inactive) | 2.04 µM (inactive)
CC(=O)CC1CCC(=O)/C=C/C(=O)OC(CC(C)=O)CCC(=O)/C=C/C(=O)O1 (stereo not given) | 4.1 µM (inactive) | 17.5 µM (inactive) | 19.9 µM (inactive) | 9.25 µM (inactive) | 25.9 µM (inactive) | 8.02 µM (inactive) | 1.6 µM (inactive) | 15.5 µM (inactive) | 16.1 µM (inactive) | 3.78 µM (inactive) | 13.6 µM (inactive) | 1.14 µM (inactive) | 13.8 µM (inactive) | 17.6 µM (inactive) | 2.9 µM (inactive) | 12.8 µM (inactive) | 3.2 µM (inactive) | 18.5 µM (inactive) | 1.67 µM (inactive) | 5.15 µM (inactive)
CC[C@@]1(O)C(=O)OCc2c1cc1n(c2=O)Cc2c-1nc1ccccc1c2/C=N\NC(=O)C[n+]1ccccc1 | 0.783 µM (active) | 0.388 µM (active) | 0.817 µM (active) | 0.0735 µM (active) | 0.115 µM (active) | > 28.1 µM (inactive) | 0.0357 µM (active) | 2.82 µM (inactive) | 7.08 µM (inactive) | 3.14 µM (inactive) | 0.247 µM (active) | 0.991 µM (active) | 0.366 µM (active) | 6.18 µM (inactive) | 1.67 µM (inactive) | 0.23 µM (active) | 7.57 µM (inactive) | 0.117 µM (active) | 1.33 µM (inactive) | 0.231 µM (active)
COc1ccc2[nH]cc([C@@H]3C4CCC(C4)[C@H]3NCc3cccc(CN[C@H]4C5CCC(C5)[C@@H]4c4c[nH]c5ccc(OC)cc45)c3)c2c1 | 766 nM (active) and 678 nM (active) | 1.75 µM (inactive) and 1.53 µM (inactive) | 1.55 µM (inactive) and 1.68 µM (inactive) | 1.5 µM (inactive) and 1.01 µM (active) | 1.53 µM (inactive) and 1.47 µM (inactive) | 1.51 µM (inactive) and 1.52 µM (inactive) | 366 nM (active) and 352 nM (active) | 1.38 µM (inactive) and 1.64 µM (inactive) | 1.42 µM (inactive) and 1.58 µM (inactive) | 1.1 µM (active) and 1.31 µM (inactive) | 1.45 µM (inactive) and 1.66 µM (inactive) | 1.5 µM (inactive) and 1.17 µM (inactive) | 1.62 µM (inactive) and 1.55 µM (inactive) | 1.55 µM (inactive) and 1.71 µM (inactive) | 531 nM (active) and 369 nM (active) | 1.26 µM (inactive) and 1.22 µM (inactive) | 1.69 µM (inactive) and 1.62 µM (inactive) | 340 nM (active) and 237 nM (active) | 238 nM (active) and 384 nM (active) | 731 nM (active) and 708 nM (active)
Cc1ccc2oc(=O)c(C(=O)Nc3nc(C45CC6CC(CC(C6)C4)C5)cs3)cc2c1 | > 100 µM (inactive) | > 100 µM (inactive) | > 100 µM (inactive) | > 100 µM (inactive) | > 100 µM (inactive) | > 100 µM (inactive) | > 100 µM (inactive) | > 100 µM (inactive) | > 100 µM (inactive) | > 100 µM (inactive) | > 100 µM (inactive) | > 100 µM (inactive) | > 100 µM (inactive) | > 100 µM (inactive) | > 100 µM (inactive) | > 100 µM (inactive) | > 100 µM (inactive) | > 100 µM (inactive) | > 100 µM (inactive) | > 100 µM (inactive)
C/C(=N/NC(N)=S)c1ccc[nH]1 | > 100 µM (inactive) | > 100 µM (inactive) | > 100 µM (inactive) | > 100 µM (inactive) | > 100 µM (inactive) | > 100 µM (inactive) | > 100 µM (inactive) | > 100 µM (inactive) | > 100 µM (inactive) | > 100 µM (inactive) | > 100 µM (inactive) | > 100 µM (inactive) | > 100 µM (inactive) | > 100 µM (inactive) | > 100 µM (inactive) | > 100 µM (inactive) | > 100 µM (inactive) | > 100 µM (inactive) | > 100 µM (inactive) | > 100 µM (inactive)
Cc1nc2c(=O)n(C)c(=O)nc-2n(CCO)c1C | > 100 µM (inactive) | > 100 µM (inactive) | > 100 µM (inactive) | > 100 µM (inactive) | > 100 µM (inactive) | > 100 µM (inactive) | > 100 µM (inactive) | > 100 µM (inactive) | > 100 µM (inactive) | > 100 µM (inactive) | > 100 µM (inactive) | > 100 µM (inactive) | > 100 µM (inactive) | > 100 µM (inactive) | > 100 µM (inactive) | > 100 µM (inactive) | > 100 µM (inactive) | > 100 µM (inactive) | > 100 µM (inactive) | > 100 µM (inactive)
c1ccc2c(c1)cc1c3[nH]c4ccccc4c3ccn21 | 6.92 µM (inactive) | > 10 µM (inactive) | > 10 µM (inactive) | 1.19 µM (inactive) | > 10 µM (inactive) | > 10 µM (inactive) | 8.32 µM (inactive) | > 10 µM (inactive) | > 10 µM (inactive) | > 10 µM (inactive) | > 10 µM (inactive) | > 10 µM (inactive) | > 10 µM (inactive) | > 10 µM (inactive) | 4.59 µM (inactive) | > 10 µM (inactive) | > 10 µM (inactive) | > 10 µM (inactive) | 6.78 µM (inactive) | > 10 µM (inactive)
O=C(CCc1ccccc1CO)NCCc1ccccc1 | > 100 µM (inactive) | > 100 µM (inactive) | > 100 µM (inactive) | > 100 µM (inactive) | > 100 µM (inactive) | > 100 µM (inactive) | > 100 µM (inactive) | > 100 µM (inactive) | > 100 µM (inactive) | > 100 µM (inactive) | > 100 µM (inactive) | > 100 µM (inactive) | > 100 µM (inactive) | > 100 µM (inactive) | > 100 µM (inactive) | 49.1 µM (inactive) | > 100 µM (inactive) | > 100 µM (inactive) | > 100 µM (inactive) | > 100 µM (inactive)
Nc1c(S(=O)(=O)O)cc(Nc2cccc(S(N)(=O)=O)c2)c2c1C(=O)c1ccccc1C2=O | > 100 µM (inactive) | 35.1 µM (inactive) | > 100 µM (inactive) | > 100 µM (inactive) | > 100 µM (inactive) | 57 µM (inactive) | > 100 µM (inactive) | 54.2 µM (inactive) | > 100 µM (inactive) | > 100 µM (inactive) | 49.7 µM (inactive) | 57.8 µM (inactive) | 37.5 µM (inactive) | > 100 µM (inactive) | > 100 µM (inactive) | 29.6 µM (inactive) | > 100 µM (inactive) | 87.5 µM (inactive) | 74.5 µM (inactive) | 62.5 µM (inactive)
